Assay results taken from ChEMBL document CHEMBL3991601, “The target landscape of clinical kinase drugs” (Science, 2017).
The source made the active and inactive calls.

Tests used:
[1] = biological target: T1, Dual specificity mitogen-activated protein kinase kinase 6 (Homo sapiens, UniProt P52564)
T1 sequence (P52564 whole entry): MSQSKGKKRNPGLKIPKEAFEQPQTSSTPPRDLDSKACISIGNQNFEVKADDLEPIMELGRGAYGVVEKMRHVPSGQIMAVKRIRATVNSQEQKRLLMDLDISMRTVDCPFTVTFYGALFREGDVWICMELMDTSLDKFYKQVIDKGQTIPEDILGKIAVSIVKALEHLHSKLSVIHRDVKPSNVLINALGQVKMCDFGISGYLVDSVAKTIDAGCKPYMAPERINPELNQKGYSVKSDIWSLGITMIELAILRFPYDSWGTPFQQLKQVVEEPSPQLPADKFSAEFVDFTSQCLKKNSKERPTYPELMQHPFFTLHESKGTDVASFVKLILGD

[2] = biological target: T2, Peroxisomal acyl-coenzyme A oxidase 1 (Homo sapiens, UniProt Q15067)
T2 sequence (Q15067 whole entry): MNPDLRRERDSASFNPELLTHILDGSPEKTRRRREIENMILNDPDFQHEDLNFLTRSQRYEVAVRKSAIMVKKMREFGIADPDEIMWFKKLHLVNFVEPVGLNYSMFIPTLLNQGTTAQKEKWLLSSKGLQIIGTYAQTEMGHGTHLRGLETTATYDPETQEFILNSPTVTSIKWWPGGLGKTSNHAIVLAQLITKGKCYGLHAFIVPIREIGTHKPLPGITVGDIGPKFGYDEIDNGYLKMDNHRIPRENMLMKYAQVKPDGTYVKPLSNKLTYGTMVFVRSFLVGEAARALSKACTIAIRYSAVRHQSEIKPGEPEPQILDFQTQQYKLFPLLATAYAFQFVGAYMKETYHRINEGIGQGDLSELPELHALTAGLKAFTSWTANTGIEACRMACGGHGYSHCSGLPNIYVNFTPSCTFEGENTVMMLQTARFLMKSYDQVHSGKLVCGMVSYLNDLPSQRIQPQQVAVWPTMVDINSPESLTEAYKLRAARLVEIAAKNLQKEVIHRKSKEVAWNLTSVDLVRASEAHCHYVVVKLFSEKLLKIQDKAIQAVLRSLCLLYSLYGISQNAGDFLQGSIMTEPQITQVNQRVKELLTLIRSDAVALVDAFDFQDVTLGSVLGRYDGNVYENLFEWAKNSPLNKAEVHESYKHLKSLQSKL

[3] = biological target: T3, Breakpoint cluster region protein (Homo sapiens, UniProt P11274)
T3 sequence (P11274 whole entry): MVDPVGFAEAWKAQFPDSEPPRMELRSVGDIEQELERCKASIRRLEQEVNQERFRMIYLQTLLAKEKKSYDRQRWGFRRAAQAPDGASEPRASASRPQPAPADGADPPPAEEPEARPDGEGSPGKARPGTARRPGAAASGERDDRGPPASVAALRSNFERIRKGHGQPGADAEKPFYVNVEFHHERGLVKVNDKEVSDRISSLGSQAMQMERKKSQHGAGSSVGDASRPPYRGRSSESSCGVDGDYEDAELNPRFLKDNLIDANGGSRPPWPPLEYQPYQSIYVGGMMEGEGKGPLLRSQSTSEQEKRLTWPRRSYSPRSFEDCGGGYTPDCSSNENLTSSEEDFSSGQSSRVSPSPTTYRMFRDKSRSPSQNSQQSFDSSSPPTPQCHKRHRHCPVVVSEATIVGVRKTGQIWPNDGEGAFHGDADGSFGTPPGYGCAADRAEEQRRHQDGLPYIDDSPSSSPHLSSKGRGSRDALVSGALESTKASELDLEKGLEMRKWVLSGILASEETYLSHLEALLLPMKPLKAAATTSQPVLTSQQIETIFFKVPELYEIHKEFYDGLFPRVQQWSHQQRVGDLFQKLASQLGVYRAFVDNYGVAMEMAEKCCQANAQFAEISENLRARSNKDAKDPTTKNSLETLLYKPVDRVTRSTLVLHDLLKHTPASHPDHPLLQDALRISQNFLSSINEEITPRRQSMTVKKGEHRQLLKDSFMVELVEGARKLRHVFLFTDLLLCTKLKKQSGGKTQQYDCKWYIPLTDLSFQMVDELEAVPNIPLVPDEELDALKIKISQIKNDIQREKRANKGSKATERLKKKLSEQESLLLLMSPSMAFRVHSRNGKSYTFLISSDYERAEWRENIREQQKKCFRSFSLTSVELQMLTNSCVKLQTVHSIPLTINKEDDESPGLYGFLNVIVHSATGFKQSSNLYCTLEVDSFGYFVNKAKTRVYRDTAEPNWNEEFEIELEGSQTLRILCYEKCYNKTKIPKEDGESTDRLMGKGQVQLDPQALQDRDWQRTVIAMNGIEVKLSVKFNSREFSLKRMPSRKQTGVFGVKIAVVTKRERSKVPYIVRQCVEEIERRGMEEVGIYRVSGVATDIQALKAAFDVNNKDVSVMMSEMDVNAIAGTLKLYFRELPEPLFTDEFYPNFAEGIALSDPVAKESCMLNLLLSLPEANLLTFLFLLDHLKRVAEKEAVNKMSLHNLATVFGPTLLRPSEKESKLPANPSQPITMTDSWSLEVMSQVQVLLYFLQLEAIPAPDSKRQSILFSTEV

[4] = biological target: Tyrosine-protein kinase CSK (Homo sapiens, UniProt P41240)
Tyrosine-protein kinase CSK, sequence (P41240 whole entry): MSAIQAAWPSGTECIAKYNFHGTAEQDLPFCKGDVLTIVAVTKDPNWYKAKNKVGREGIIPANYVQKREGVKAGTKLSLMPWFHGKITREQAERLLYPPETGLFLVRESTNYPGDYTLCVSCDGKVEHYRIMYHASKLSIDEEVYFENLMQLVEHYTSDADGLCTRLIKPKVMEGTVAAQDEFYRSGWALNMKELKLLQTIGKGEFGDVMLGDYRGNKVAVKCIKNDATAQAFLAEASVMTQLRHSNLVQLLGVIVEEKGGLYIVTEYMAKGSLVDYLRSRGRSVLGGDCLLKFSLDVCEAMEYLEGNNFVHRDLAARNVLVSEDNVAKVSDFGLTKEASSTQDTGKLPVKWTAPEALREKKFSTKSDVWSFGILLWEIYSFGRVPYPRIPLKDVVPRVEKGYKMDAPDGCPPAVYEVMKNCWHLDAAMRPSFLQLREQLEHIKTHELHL
Note: in the data inactive means no Kd found up to 30 µM.

SMILES | Kd [1] | Kd [2] | Kd [3] | Kd [4]
CCCCCCCCCCCCCCCCCCOP(=O)([O-])OC1CC[N+](C)(C)CC1 [PERIFOSINE] | > 30 µM (inactive) | > 30 µM (inactive) | > 30 µM (inactive) | > 30 µM (inactive)
CC(=O)NCC(=O)N1[C@@H]2CC[C@H]1c1ccc(Nc3ncc(C(F)(F)F)c(NC4CCC4)n3)cc12 [PF-03814735] | > 30 µM (inactive) | > 30 µM (inactive) | 10.8 µM (active) | > 30 µM (inactive)
Cc1cnc(NC(=O)Nc2cc(Br)c(C)cc2OC[C@@H]2CNCCO2)cn1 [RABUSERTIB] | > 30 µM (inactive) | > 30 µM (inactive) | > 30 µM (inactive) | > 30 µM (inactive)
CNC(=O)c1cc(Oc2ccc(NC(=O)Nc3cc(C(C)(C)C)nn3-c3ccc4ncccc4c3)c(F)c2)ccn1 [REBASTINIB] | > 30 µM (inactive) | > 30 µM (inactive) | 0.381 µM (active) | 0.41 µM (active)
N#CC1(c2ccc(NC(=O)c3cccnc3NCc3ccncc3)cc2)CCCC1 [RIVOCERANIB] | > 30 µM (inactive) | > 30 µM (inactive) | > 30 µM (inactive) | > 30 µM (inactive)
O=c1[nH]ccc2cc(OC3CCNCC3)ccc12 [SAR-407899 FREE BASE] | > 30 µM (inactive) | > 30 µM (inactive) | > 30 µM (inactive) | > 30 µM (inactive)
CN1CCN(CCOc2cc(OC3CCOCC3)c3c(Nc4c(Cl)ccc5c4OCO5)ncnc3c2)CC1 [SARACATINIB] | > 30 µM (inactive) | > 30 µM (inactive) | 0.016 µM (active) | 39.6 µM (active)
Cn1cc(-c2cnn3c(N)c(Br)c([C@@H]4CCCNC4)nc23)cn1 [SCH-900776] | > 30 µM (inactive) | > 30 µM (inactive) | > 30 µM (inactive) | > 30 µM (inactive)
CO[C@H]1C[C@@H]2CC[C@@H](C)[C@@](O)(O2)C(=O)C(=O)N2CCCC[C@H]2C(=O)O[C@H]([C@H](C)C[C@@H]2CC[C@@H](O)[C@H](OC)C2)CC(=O)[C@H](C)/C=C(\C)[C@@H](O)[C@@H](OC)C(=O)[C@H](C)C[C@H](C)/C=C/C=C/C=C/1C [SIROLIMUS] | > 30 µM (inactive) | > 30 µM (inactive) | > 30 µM (inactive) | > 30 µM (inactive)
CCS(=O)(=O)c1cccc(-c2cc(C(=O)NC3CCN(C)CC3)c(C)c3[nH]c4ncc(C)cc4c23)c1 [TAK-901] | > 30 µM (inactive) | > 30 µM (inactive) | 0.133 µM (active) | > 30 µM (inactive)
CO[C@H]1C[C@@H]2CC[C@@H](C)[C@@](O)(O2)C(=O)C(=O)N2CCCC[C@H]2C(=O)O[C@H]([C@H](C)C[C@@H]2CC[C@@H](OC(=O)C(C)(CO)CO)[C@H](OC)C2)CC(=O)[C@H](C)/C=C(\C)[C@@H](O)[C@@H](OC)C(=O)[C@H](C)C[C@H](C)/C=C/C=C/C=C/1C [TEMSIROLIMUS] | > 30 µM (inactive) | > 30 µM (inactive) | > 30 µM (inactive) | > 30 µM (inactive)
COc1cc2c(Nc3ccc(Cl)c(Cl)c3F)ncnc2cc1OC[C@@H]1C[C@@H]2CN(C)C[C@@H]2C1 [TESEVATINIB] | > 30 µM (inactive) | > 30 µM (inactive) | 0.113 µM (active) | > 30 µM (inactive)
O=C(Cc1ccc(-c2ccc(OCCN3CCOCC3)cc2)cn1)NCc1ccccc1 [TIRBANIBULIN] | > 30 µM (inactive) | > 30 µM (inactive) | > 30 µM (inactive) | > 30 µM (inactive)
Cn1ncc(Cl)c1-c1cc(C(=O)N[C@H](CN)Cc2ccc(F)c(F)c2)oc1Cl [UPROSERTIB] | > 30 µM (inactive) | > 30 µM (inactive) | > 30 µM (inactive) | > 30 µM (inactive)
CC(C)c1cc(CNc2nc(Nc3cc(C4CC4)[nH]n3)cc(N3CCN(C)CC3)n2)on1 [XL-228] | > 30 µM (inactive) | > 30 µM (inactive) | 0.003 µM (active) | > 30 µM (inactive)
C[C@@H](N)c1ccc(C(=O)Nc2ccnc3[nH]ccc23)cc1 [Y-39983] | > 30 µM (inactive) | > 30 µM (inactive) | > 30 µM (inactive) | > 30 µM (inactive)
CN1C/C=C/CCOc2cccc(c2)-c2ccnc(n2)Nc2cccc(c2)C1 [ZOTIRACICLIB] | > 30 µM (inactive) | > 30 µM (inactive) | > 30 µM (inactive) | > 30 µM (inactive)
